Patent US20260166159A1, “KRAS G12D DEGRADATION AGENT, AND PREPARATION METHOD AND USE THEREFOR” (LEADINGTAC PHARMACEUTICAL (SHAOXING) CO., LTD., priority 2022, published 2026)

What was measured:
Type in all cases: cell-based
[1] = system: KRAS G12D mutant human lung cancer cell A427; assay: 3D cell proliferation inhibition assay, A427; details: A-427, 168 h, A427, 7 days, CTG, numeric values
In short: (§1)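 Cells were seeded at 5×10^2 cells/well in low-adsorption plates with compound (10000–0.026 nM final, 0.2% DMSO) and grown for 7 days at 37 °C, 5% CO2. Viability was read by CTG luminescence after 60 min at room temperature. IC50 came from log concentration–inhibition curve fits, normalised to DMSO and medium-only controls.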

[2] = system: KRAS G12D mutant human pancreatic cancer cell HPAC; assay: 3D cell proliferation inhibition assay, HPAC; details: 168 h, 7 days, CTG
In short: as §1

KRAS-G12D [3] = target: T1, KRAS-G12D (Homo sapiens, UniProt P01116, G12D); assay: KRAS-G12D degradation assay (Western Blot), AsPc-1 cells; details: for DC50: 24 h; for Dmax: ASPC1, 24 h
T1 construct: endogenous in cells; host or cells: A-427 (ATCC), AGS, AsPc-1, Panc 04.03
T1 sequence (P01116 1-188 isoform P01116-2 G12D): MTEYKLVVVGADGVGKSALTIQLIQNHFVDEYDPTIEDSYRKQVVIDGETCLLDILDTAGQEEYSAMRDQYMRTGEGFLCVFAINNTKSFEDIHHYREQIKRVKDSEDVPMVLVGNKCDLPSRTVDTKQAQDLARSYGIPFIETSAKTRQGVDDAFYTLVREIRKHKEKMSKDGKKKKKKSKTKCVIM
In short: (§2)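 Each KRAS G12D mutant line (A-427, AGS, AsPc-1, Panc 04.03) was seeded at 5×10^5 cells/well and treated 24 h at 37 °C with 0.03–3000 nM compound (final DMSO 0.25%). KRAS in lysates was measured by Western blot, normalized to β-actin and compared with controls, giving DC50 and Dmax from curve fits.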

KRAS-G12D [4] = target: T1, KRAS-G12D; assay: KRAS-G12D degradation assay (Western Blot), Panc 04.03 cells; details: 24 h
Experimental: (§3) The degradation effects of the compounds on KRAS-G12D were investigated on KRAS G12D mutant human lung cancer cell A-427 (ATCC), KRAS G12D mutant human gastric cancer cell AGS, KRAS G12D mutant human metastatic pancreatic cancer cell AsPc-1, and KRAS G12D mutant human pancreatic adenocarcinoma cell Panc 04.03. The specific procedures were as follows: 0.95 mL of cells were seeded into each well of a 24-well cell culture plate to achieve a cell density of 5×10^5 cells/well; and the cell plate was incubated in an incubator at 37° C. with 5% CO2 overnight. Then 50 μL of the compound solution after dilution was added to each of the wells with the corresponding cells, so that the final concentration of the compound was in a range of 0.03-3000 nM. The final concentration of DMSO was 0.25%. After the compounds were added, the cell plate was incubated in the incubator at 37° C. with 5% CO2 for 24 h. The culture medium in the 24-well cell culture plate was removed, and the plate was washed twice with 1×PBS (KeyGEN). 120 μL of RIPA (strong) lysis buffer (Beyotime) supplemented with 1 mM phenylmethylsulfonyl fluoride, a protease inhibitor mixture (Beyotime), and a protease phosphatase inhibitor mixture (Beyotime) was added to lyse adherent A-427 cells at the bottom of the cell culture plate. After the plate was left to stand on ice for 30 min, the protein lysate in each well was transferred to a 1.5 mL centrifuge tube and centrifuged at 15000 g for 20 min at 4° C. The cell lysate supernatants after centrifugation were cryopreserved in a refrigerator at −80° C. for later use.
(§4) After the samples of the cell lysate supernatants that had been prepared were thawed from the refrigerator at −80° C., the total protein concentrations of the cell lysates were determined using a BCA protein quantification kit (Tiangen). The total protein concentrations of the samples were then adjusted to 0.5 μg/μL with PBS and 5×SDS-PAGE protein loading buffer (Beyotime), and the samples were incubated in a water bath at 100° C. for 15 min. The samples were then incubated in an ice bath for 5 min and centrifuged at 14000 g for 1 min at 4° C., and the supernatants were mixed well as loading samples for the Western Blot assay. The samples were loaded into wells of a 10% precast gel (KeyGEN) with a loading volume of 10 μL (total protein: 5 μg), a sufficient Tris-MOPS-SDS running buffer (Adamas) was added, and then electrophoresis was performed at a constant voltage of 120 V for 55 min. After the electrophoresis, the proteins on the gel were transferred to PVDF membranes at a constant current of 250 mA for 55 min. After the membrane transfer, the PVDF membranes were incubated in 1× Quick Block blocking buffer (Beyotime) at room temperature for 30 min. After the blocking, the PVDF membranes were separately incubated at 4° C. overnight with the KRAS antibody (Abcam) diluted in a ratio of 1:1000 and the […] antibody (Abcam) diluted in a ratio of 1:2000 in 5% BSA as the diluent, and then washed with 1×TBST buffer (2.4 g of Tris, 8.8 g of NaCl, 1.5 mL of Tween 20, with pH adjusted to 7.4, with the volume brought to 1 L) 3 times for 10 min/time. The membranes were incubated with a secondary antibody (Abcam) diluted in 5% BSA at room temperature for 2 h, and then washed with 1×TBST buffer 3 times for 10 min/time. Finally, the membranes were incubated with Clarity Western ECL Substrate (BIO-RAD) for 5 min for luminescence and color development, and a ChemiScope 6200 Touch chemiluminescence imaging system (Clinx) was used for color development and protein mapping. Gray value analysis of the protein maps was performed using the chemiluminescence analysis software (Clinx). The gray correction value for each sample was calculated using the formula: gray correction value=(gray value of target protein/gray value of corresponding internal reference)×10^3. Then degradation rates were calculated by comparison with the gray correction value of the control group. […]

KRAS-G12D [5] = target: T1, KRAS-G12D; assay: KRAS-G12D degradation assay (Western Blot), AGS cells; details: 24 h
Experimental: as §3, §4

[6] = system: KRAS G12D mutant human gastric cancer cell AGS; assay: 3D cell proliferation inhibition assay, AGS; details: 168 h, 7 days, CTG, numeric values
In short: as §1

[7] = system: KRAS G12D mutant human metastatic pancreatic cancer cell AsPc-1; assay: 3D cell proliferation inhibition assay, AsPc-1; details: ASPC1, 168 h, AsPc-1, 7 days, CTG, numeric values
In short: as §1

[8] = system: KRAS G12D mutant human pancreatic cancer cell Panc 04.03; assay: 3D cell proliferation inhibition assay, Panc 04.03; details: 168 h, Panc 04.03, 7 days, CTG, numeric values
In short: as §1

KRAS-G12D [9] = target: T1, KRAS-G12D; assay: KRAS-G12D degradation assay (Western Blot), A-427 cells; details: A427 cells, 24 h, numeric values; for Dmax: A-427
In short: as §2

Structure (SMILES)	IC50 [1] [nM]	IC50 [2] [nM]	DC50 (KRAS-G12D [3]) [nM]	Dmax (KRAS-G12D [3]) [%]	DC50 (KRAS-G12D [4]) [nM]	Dmax (KRAS-G12D [4]) [%]	DC50 (KRAS-G12D [5]) [nM]	Dmax (KRAS-G12D [5]) [%]	IC50 [6] [nM]	IC50 [7] [nM]	IC50 [8] [nM]	DC50 (KRAS-G12D [9]) [nM]	Dmax (KRAS-G12D [9]) [%]
C#Cc1c(F)ccc2cc(O)cc(-c3ccc4c(N5CC6CCC(C5)N6)nc(OCC5(CN6CCN(CC7CCC8(CC7)CCN(C(=O)c7ccc(OC)c(N9CCC(=O)NC9=O)c7)CC8)CC6)CC5)nc4c3F)c12 [Example 71, 1-(5-(9-((4-((1-(((4-(3,8-diazabicyclo[3.2.1]octan-3-yl)-7-(8-ethynyl-7-fluoro-3-hydroxynaphthalen-1-yl)-8-fluoroquinazolin-2-yl)oxy)methyl)cyclopropyl)methyl)piperazin-1-yl)methyl)-3-azaspiro[5.5]undecane-3-carbonyl)-2-methoxyphenyl)dihydropyrimidine-2,4(1H,3H)-dione]	46.8	9.31	4.76	98.6	11.9	98.8	7.02	99.6	4.17	5.28	16.7	2.1	95
CCc1c(F)ccc2cc(O)cc(-c3ccc4c(N5CC6CCC(C5)N6)nc(OCC5(CN6CCN(CC7CCC8(CC7)CCN(C(=O)c7ccc(C)c(N9CCC(=O)NC9=O)c7)CC8)CC6)CC5)nc4c3F)c12 [Example 75, 1-(5-(9-((4-((1-(((4-(3,8-diazabicyclo[3.2.1]octan-3-yl)-7-(8-ethyl-7-fluoro-3-hydroxynaphthalen-1-yl)-8-fluoroquinazolin-2-yl)oxy)methyl)cyclopropyl)methyl)piperazin-1-yl)methyl)-3-azaspiro[5.5]undecane-3-carbonyl)-2-methylphenyl)dihydropyrimidine-2,4(1H,3H)-dione]	88.1	11.3	8.79	99.5	9.38	92	57.8	89.2	9.1	14.8	83.9	4.13	83.8
CCc1c(F)ccc2cc(O)cc(-c3ccc4c(N5CC6CCC(C5)N6)nc(OCC5(CN6CCN(CC7CCC8(CC7)CCN(C(=O)c7ccc(OC)c(N9CCC(=O)NC9=O)c7)CC8)CC6)CC5)nc4c3F)c12 [Example 73, 1-(5-(9-((4-((1-(((4-(3,8-diazabicyclo[3.2.1]octan-3-yl)-7-(8-ethyl-7-fluoro-3-hydroxynaphthalen-1-yl)-8-fluoroquinazolin-2-yl)oxy)methyl)cyclopropyl)methyl)piperazin-1-yl)methyl)-3-azaspiro[5.5]undecane-3-carbonyl)-2-methoxyphenyl)dihydropyrimidine-2,4(1H,3H)-dione]	3.54	14.7	35.7	100	27.1	95.6	16	85.7	21.1	14.9	64.8	19.8	87.2
C#Cc1cccc2cc(O)cc(-c3ncc4c(N5CC6CCC(C5)N6)nc(OCC5(CN6CCN(CC7CCC8(CC7)CCN(C(=O)c7ccc(OC)c(N9CCC(=O)NC9=O)c7)CC8)CC6)CC5)nc4c3F)c12 [Example 82, 1-(5-(9-((4-((1-(((4-(3,8-diazabicyclo[3.2.1]octan-3-yl)-7-(8-ethynyl-3-hydroxynaphthalen-1-yl)-8-fluoropyrido[4,3-d]pyrimidin-2-yl)oxy)methyl)cyclopropyl)methyl)piperazin-1-yl)methyl)-3-azaspiro[5.5]undecane-3-carbonyl)-2-methoxyphenyl)dihydropyrimidine-2,4(1H,3H)-dione]	21.8	4.15	12.6	93.7	6.74	100	3.84	97.7	5.78	4.95	14.1	1.21	99
